Columns and labels:
[1] = target: MYLK (Homo sapiens, UniProt Q15746); test: MYLK Assay (LanthaScreen Eu Kinase Binding Assay); conditions: 5 nM MYLK, 30 nM tracer 236, RT 1 h; read-out: MYLK Activities: IC50
Experimental: In the assay LanthaScreen™ Eu Kinase Binding Assay by Invitrogen Corporation (Carlsbad) the effect of invention of a compound on the phosphorylation is determined by measurement of fluorescence intensity emission ratio based on the binding and displacement of a proprietary, Alexa Fluor® 647-labeled, ATP-competitive kinase inhibitor scaffold (kinase tracer) to the kinase of interest as described above.
To the wells of an 384 well small volume plate (Greiner, Frickenhausen) are added (i) the compound under test in 5% is DMSO/distilled water (5 μl), (ii) 5 μl of the kinase antibody mixture resulting in a final concentration 5 nM MYLK, 2 nM EU-Anti-GST antibody in 1× kinase buffer A. The reaction was started with addition of (iii) 5 μl resulting in a final concentration of 30 nM tracer 236. The assay plate was incubated at RT for 1 h and fluorescence intensity readings were collected using a TECAN M1000 at two wavelengths of λex 340/λem 615 nm and λex 340/λem 665 nm with a delay time of 100 μs and an integration time of 200 μs after 60 minutes. The emission ratio was calculated by division of the acceptor/tracer emission ([…]) by the antibody/donor emission ([…]). The inhibitor concentration was plotted versus the emission ratio to determine the IC50 using XLFit 5.0 (IDBS, Guildford) to fit to a sigmoidal dose response curve with a variable slope.

[2] = target: LRRK2 (Homo sapiens, UniProt Q5S007); test: LRRK2-LRRK2 G2019S-Assay (LanthaScreen Eu Kinase Binding Assay); conditions: 5 nM LRRK2 or their mutants, 10 nM tracer 236, RT 1 h; read-out: LRRK2 Activities: IC50
Chain of LRRK2 (Q5S007 970-2527 limits assumed): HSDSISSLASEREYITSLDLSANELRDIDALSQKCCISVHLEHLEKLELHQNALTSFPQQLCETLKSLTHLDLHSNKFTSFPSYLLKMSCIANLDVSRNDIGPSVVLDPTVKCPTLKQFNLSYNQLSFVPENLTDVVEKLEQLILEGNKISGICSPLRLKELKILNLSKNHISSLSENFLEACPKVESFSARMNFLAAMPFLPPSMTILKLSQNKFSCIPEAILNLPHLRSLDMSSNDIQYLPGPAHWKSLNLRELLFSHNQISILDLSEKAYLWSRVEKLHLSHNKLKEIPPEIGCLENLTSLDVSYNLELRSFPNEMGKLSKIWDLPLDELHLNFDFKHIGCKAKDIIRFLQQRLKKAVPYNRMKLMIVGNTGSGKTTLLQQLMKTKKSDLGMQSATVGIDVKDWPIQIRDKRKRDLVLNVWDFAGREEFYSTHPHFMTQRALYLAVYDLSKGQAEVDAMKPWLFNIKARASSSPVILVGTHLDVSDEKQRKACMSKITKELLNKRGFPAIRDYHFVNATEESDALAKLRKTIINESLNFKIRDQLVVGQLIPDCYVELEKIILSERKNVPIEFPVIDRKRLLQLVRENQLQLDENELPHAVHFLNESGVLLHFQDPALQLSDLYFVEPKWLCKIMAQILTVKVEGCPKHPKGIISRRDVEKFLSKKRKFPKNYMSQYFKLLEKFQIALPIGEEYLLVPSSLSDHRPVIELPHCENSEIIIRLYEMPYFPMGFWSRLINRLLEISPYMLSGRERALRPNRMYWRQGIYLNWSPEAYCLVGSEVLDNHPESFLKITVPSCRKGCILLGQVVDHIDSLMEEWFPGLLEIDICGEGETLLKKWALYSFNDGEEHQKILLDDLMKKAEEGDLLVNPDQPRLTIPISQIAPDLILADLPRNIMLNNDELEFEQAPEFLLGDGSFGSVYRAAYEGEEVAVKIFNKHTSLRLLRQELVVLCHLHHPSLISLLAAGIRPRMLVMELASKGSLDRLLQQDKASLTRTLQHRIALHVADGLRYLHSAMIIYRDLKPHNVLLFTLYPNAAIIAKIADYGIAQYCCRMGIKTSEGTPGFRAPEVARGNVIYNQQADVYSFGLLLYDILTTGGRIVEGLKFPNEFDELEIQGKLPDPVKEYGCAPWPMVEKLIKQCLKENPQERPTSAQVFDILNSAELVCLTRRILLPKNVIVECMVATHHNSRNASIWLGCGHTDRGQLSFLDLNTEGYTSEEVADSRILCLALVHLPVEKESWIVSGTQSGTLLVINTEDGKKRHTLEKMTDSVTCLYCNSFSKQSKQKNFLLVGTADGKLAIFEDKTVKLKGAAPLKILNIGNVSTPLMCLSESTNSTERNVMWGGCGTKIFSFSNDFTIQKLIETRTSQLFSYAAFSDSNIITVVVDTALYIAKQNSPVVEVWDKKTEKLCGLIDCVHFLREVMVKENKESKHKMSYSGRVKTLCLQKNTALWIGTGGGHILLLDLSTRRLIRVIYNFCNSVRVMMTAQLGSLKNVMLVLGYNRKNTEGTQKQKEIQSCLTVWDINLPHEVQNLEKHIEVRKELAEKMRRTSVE
Summary of the method: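 TR-FRET tracer-displacement binding assay with 5 nM LRRK2 or mutant, 2 nM Eu-anti-GST antibody and 10 nM tracer 236 in kinase buffer A. Incubated 1 h at RT; 665/615 nm emission ratio read (ex 340 nm). IC50 from variable-slope sigmoidal fit.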

[3] = target: T1, SYK kinase (Homo sapiens, UniProt P43405); test: SYK Assay (OMNIA KINASE ASSAY, SOX peptide fluorescence); assay type: biochemical; conditions: apparent Ki calculated from the IC50 using the Cheng-Prusoff equation; 1 mM ATP, 30° C.; read-out: SYK Activities: Ki
T1 construct: purchased Invitrogen, Carlsbad
Summary of the method: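 Continuous Omnia assay: SYK phosphorylation of SOX-labelled Tyr 7 peptide (10 µM) with 1 mM ATP and 0.2 mM DTT at 30 °C. Fluorescence (ex 360/em 485 nm) read every 30 s for 30 min. Reaction velocity versus inhibitor concentration gives IC50, converted to apparent Ki by Cheng-Prusoff.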

Chain of MYLK (Q15746 whole entry): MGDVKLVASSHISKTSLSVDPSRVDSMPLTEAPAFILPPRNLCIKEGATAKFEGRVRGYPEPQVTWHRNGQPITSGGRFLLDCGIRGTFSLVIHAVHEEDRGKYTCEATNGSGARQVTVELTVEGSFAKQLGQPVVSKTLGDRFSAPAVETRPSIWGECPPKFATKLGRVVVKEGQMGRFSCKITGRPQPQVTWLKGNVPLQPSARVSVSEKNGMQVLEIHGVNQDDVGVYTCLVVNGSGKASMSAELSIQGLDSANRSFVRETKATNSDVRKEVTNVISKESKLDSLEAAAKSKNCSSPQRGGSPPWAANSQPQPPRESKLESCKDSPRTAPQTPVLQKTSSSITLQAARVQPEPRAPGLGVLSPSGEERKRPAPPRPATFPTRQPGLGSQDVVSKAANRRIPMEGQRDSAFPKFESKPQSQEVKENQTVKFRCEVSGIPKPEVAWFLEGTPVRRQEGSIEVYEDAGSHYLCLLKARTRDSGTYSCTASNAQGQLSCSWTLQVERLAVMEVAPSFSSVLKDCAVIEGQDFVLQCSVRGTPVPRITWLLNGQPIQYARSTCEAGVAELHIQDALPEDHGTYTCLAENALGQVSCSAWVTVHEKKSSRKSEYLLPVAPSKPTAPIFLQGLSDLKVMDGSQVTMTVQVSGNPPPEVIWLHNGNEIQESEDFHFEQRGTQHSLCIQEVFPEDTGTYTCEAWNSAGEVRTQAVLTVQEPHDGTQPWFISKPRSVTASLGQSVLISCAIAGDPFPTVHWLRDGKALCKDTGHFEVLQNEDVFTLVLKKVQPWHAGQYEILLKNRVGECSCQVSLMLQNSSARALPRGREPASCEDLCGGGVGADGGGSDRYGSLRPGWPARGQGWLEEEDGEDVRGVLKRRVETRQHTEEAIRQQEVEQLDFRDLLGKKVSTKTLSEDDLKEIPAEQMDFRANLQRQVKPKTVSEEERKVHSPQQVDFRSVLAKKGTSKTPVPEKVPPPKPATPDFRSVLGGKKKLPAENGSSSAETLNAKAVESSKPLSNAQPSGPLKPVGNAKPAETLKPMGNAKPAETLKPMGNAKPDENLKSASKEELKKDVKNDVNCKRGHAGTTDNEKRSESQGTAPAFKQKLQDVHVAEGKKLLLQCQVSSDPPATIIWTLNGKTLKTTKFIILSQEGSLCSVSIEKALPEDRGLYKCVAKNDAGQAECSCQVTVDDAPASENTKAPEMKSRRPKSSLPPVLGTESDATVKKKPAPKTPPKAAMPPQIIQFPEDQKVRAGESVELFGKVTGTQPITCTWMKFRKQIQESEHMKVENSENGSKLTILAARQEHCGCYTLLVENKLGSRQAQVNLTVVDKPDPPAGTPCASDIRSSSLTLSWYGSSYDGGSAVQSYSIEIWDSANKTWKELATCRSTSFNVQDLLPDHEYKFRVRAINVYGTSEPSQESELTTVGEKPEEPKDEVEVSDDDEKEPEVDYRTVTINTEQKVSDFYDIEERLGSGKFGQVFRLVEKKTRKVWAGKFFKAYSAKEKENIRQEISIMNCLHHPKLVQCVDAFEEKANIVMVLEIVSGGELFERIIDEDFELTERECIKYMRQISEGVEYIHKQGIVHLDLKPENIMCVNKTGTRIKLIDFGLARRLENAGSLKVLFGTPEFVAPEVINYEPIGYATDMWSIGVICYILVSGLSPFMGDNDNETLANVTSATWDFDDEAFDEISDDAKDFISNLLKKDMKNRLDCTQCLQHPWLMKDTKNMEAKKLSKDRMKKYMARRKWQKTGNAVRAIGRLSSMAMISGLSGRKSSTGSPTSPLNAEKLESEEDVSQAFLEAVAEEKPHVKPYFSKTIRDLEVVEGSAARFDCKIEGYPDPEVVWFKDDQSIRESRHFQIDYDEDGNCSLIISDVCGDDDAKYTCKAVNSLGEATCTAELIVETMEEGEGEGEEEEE

IC50 [1] | IC50 [2] | Ki [3] | SMILES
< 5000 nM | 100 to 1000 nM | < 10 nM | NC(=O)c1cccc(Nc2nc(-c3ccccc3)nc3cn[nH]c23)c1 [Example #5, 3-((5-phenyl-1H-pyrazolo[4,3-d]pyrimidin-7-yl)amino)benzamide]
< 5000 nM | 100 to 1000 nM | < 10 nM | CN1CCN(c2ccc(Nc3nc(-c4ccncc4)nc4cn[nH]c34)cc2)CC1 [Example #20, N-(4-(4-methylpiperazin-1-yl)phenyl)-5-(pyridin-4-yl)-1H-pyrazolo[4,3-d]pyrimidin-7-amine]
< 5000 nM | 100 to 1000 nM | 100 to 1000 nM | O=C1COc2ccc(Nc3nc(-c4ccncc4)nc4cn[nH]c34)cc2N1 [Example #21, 6-((5-(pyridin-4-yl)-1H-pyrazolo[4,3-d]pyrimidin-7-yl)amino)-2H-benzo[b][1,4]oxazin-3(4H)-one]
< 5000 nM | 100 to 1000 nM | < 10 nM | COc1ccc(-c2nc(Nc3ccc(N4CCN(C)CC4)cc3)c3[nH]ncc3n2)cc1OC [Example #34, 5-(3,4-dimethoxyphenyl)-N-(4-(4-methylpiperazin-1-yl)phenyl)-1H-pyrazolo[4,3-d]pyrimidin-7-amine]
< 5000 nM | 100 to 1000 nM | < 10 nM | CN1CCN(c2ccc(Nc3nc(-c4ccccc4)nc4cn[nH]c34)cc2)CC1 [Example #35, N-(4-(4-methylpiperazin-1-yl)phenyl)-5-phenyl-1H-pyrazolo[4,3-d]pyrimidin-7-amine]
< 5000 nM | 10 to 100 nM | < 10 nM | CN1CCN(c2ccc(Nc3nc(-c4ccc(N5CCCC5)nc4)nc4cn[nH]c34)cc2)CC1 [Example #46, N-(4-(4-methylpiperazin-1-yl)phenyl)-5-(6-(pyrrolidin-1-yl)pyridin-3-yl)-1H-pyrazolo[4,3-d]pyrimidin-7-amine]
< 5000 nM | 100 to 1000 nM | < 10 nM | COc1ccc(-c2nc(Nc3ccc(OC)c(OC)c3)c3[nH]ncc3n2)cc1 [Example #58, N-(3,4-dimethoxyphenyl)-5-(4-methoxyphenyl)-1H-pyrazolo[4,3-d]pyrimidin-7-amine]
< 5000 nM | 10 to 100 nM | < 10 nM | COc1cccc(-c2nc(Nc3ccc(N4CCN(C)CC4)cc3)c3[nH]ncc3n2)c1 [Example #62, 5-(3-methoxyphenyl)-N-(4-(4-methylpiperazin-1-yl)phenyl)-1H-pyrazolo[4,3-d]pyrimidin-7-amine]
< 5000 nM | 100 to 1000 nM | < 10 nM | COc1ccc(Nc2nc(-c3cccs3)nc3cn[nH]c23)cc1OC [Example #68, N-(3,4-dimethoxyphenyl)-5-(thiophen-2-yl)-1H-pyrazolo[4,3-d]pyrimidin-7-amine]
< 5000 nM | 10 to 100 nM | < 10 nM | CN1CCN(c2ccc(Nc3nc(-c4cccs4)nc4cn[nH]c34)cc2)CC1 [Example #70, N-(4-(4-methylpiperazin-1-yl)phenyl)-5-(thiophen-2-yl)-1H-pyrazolo[4,3-d]pyrimidin-7-amine]
< 5000 nM | 100 to 1000 nM | < 10 nM | CN1CCN(c2ccc(Nc3nc(-c4ccsc4)nc4cn[nH]c34)cc2)CC1 [Example #74, N-(4-(4-methylpiperazin-1-yl)phenyl)-5-(thiophen-3-yl)-1H-pyrazolo[4,3-d]pyrimidin-7-amine]
< 5000 nM | 100 to 1000 nM | 10 to 100 nM | Oc1cccc(Nc2nc(-c3cccs3)nc3cn[nH]c23)c1 [Example #83, 3-((5-(thiophen-2-yl)-1H-pyrazolo[4,3-d]pyrimidin-7-yl)amino)phenol]
< 5000 nM | 10 to 100 nM | < 10 nM | c1csc(-c2nc(Nc3ccc4c(c3)NCCO4)c3[nH]ncc3n2)c1 [Example #91, N-(5-(thiophen-2-yl)-1H-pyrazolo[4,3-d]pyrimidin-7-yl)-3,4-dihydro-2H-benzo[b][1,4]oxazin-6-amine]
< 5000 nM | 10 to 100 nM | < 10 nM | CN1CCN(c2ccc(Nc3nc(-c4nc5ccccc5s4)nc4cn[nH]c34)cc2)CC1 [Example #95, 5-(benzo[d]thiazol-2-yl)-N-(4-(4-methylpiperazin-1-yl)phenyl)-1H-pyrazolo[4,3-d]pyrimidin-7-amine]
< 5000 nM | 100 to 1000 nM | 10 to 100 nM | c1ccc2sc(-c3nc(Nc4ccc5c(c4)NCCO5)c4[nH]ncc4n3)nc2c1 [Example #97, N-(5-(benzo[d]thiazol-2-yl)-1H-pyrazolo[4,3-d]pyrimidin-7-yl)-3,4-dihydro-2H-benzo[b][1,4]oxazin-6-amine]
< 5000 nM | 100 to 1000 nM | < 10 nM | CN1CCN(c2ccc(Nc3nc(-c4cccc(-c5cccnc5)c4)nc4cn[nH]c34)cc2)CC1 [Example #99, N-(4-(4-methylpiperazin-1-yl)phenyl)-5-(3-(pyridin-3-yl)phenyl)-1H-pyrazolo[4,3-d]pyrimidin-7-amine]
< 5000 nM | 100 to 1000 nM | 10 to 100 nM | CN(C)c1cccc(Nc2nc(-c3ccsc3)nc3cn[nH]c23)c1 [Example #114, N1,N1-dimethyl-N3-(5-(thiophen-3-yl)-1H-pyrazolo[4,3-d]pyrimidin-7-yl)benzene-1,3-diamine]
< 5000 nM | 10 to 100 nM | < 10 nM | Nc1cccc(Nc2nc(-c3ccsc3)nc3cn[nH]c23)c1 [Example #117, N1-(5-(thiophen-3-yl)-1H-pyrazolo[4,3-d]pyrimidin-7-yl)benzene-1,3-diamine]
< 5000 nM | 10 to 100 nM | < 10 nM | CN1CCN(c2ccc(Nc3nc(-c4ccsc4)nc4cn[nH]c34)cn2)CC1 [Example #118, N-(6-(4-methylpiperazin-1-yl)pyridin-3-yl)-5-(thiophen-3-yl)-1H-pyrazolo[4,3-d]pyrimidin-7-amine]
< 5000 nM | 100 to 1000 nM | 10 to 100 nM | CN(C)Cc1ccc(Nc2nc(-c3ccccc3)nc3cn[nH]c23)cc1 [Example #120, N-(4-((dimethylamino)methyl)phenyl)-5-phenyl-1H-pyrazolo[4,3-d]pyrimidin-7-amine]
< 5000 nM | 100 to 1000 nM | 10 to 100 nM | c1ccn2cc(-c3nc(Nc4ccc5cn[nH]c5c4)c4[nH]ncc4n3)nc2c1 [Example #127, 5-(imidazo[1,2-a]pyridin-2-yl)-N-(1H-indazol-6-yl)-1H-pyrazolo[4,3-d]pyrimidin-7-amine]
< 5000 nM | 100 to 1000 nM | < 10 nM | COc1cccc(-c2nc(Nc3ccc(CN4CCN(C)CC4)cc3)c3[nH]ncc3n2)c1 [Example #131, 5-(3-methoxyphenyl)-N-(4-((4-methylpiperazin-1-yl)methyl)phenyl)-1H-pyrazolo[4,3-d]pyrimidin-7-amine]
< 5000 nM | 100 to 1000 nM | < 10 nM | COc1cccc(-c2nc(Nc3ccc(CN4CCCC4)cc3)c3[nH]ncc3n2)c1 [Example #132, 5-(3-methoxyphenyl)-N-(4-(pyrrolidin-1-ylmethyl)phenyl)-1H-pyrazolo[4,3-d]pyrimidin-7-amine]
< 5000 nM | 100 to 1000 nM | < 10 nM | CN1CCN(C(=O)c2ccc(Nc3nc(-c4cccs4)nc4cn[nH]c34)cc2)CC1 [Example #134, (4-methylpiperazin-1-yl)(4-((5-(thiophen-2-yl)-1H-pyrazolo[4,3-d]pyrimidin-7-yl)amino)phenyl)methanone]
< 5000 nM | 100 to 1000 nM | < 10 nM | CC(=O)N1CCN(c2ccc(Nc3nc(-c4cccs4)nc4cn[nH]c34)cc2)CC1 [Example #138, 1-(4-(4-((5-(thiophen-2-yl)-1H-pyrazolo[4,3-d]pyrimidin-7-yl)amino)phenyl)piperazin-1-yl)ethan-1-one]
< 5000 nM |  | 10 to 100 nM | O=C1COc2ccc(-c3nc(Nc4ccc(N5CCOCC5)cc4)c4[nH]ncc4n3)cc2N1 [Example #288, 6-(7-((4-morpholinophenyl)amino)-1H-pyrazolo[4,3-d]pyrimidin-5-yl)-2H-benzo[b][1,4]oxazin-3(4H)-one]
< 5000 nM |  | 10 to 100 nM | Cc1nc2cc(Nc3nc(-c4ccc5c(c4)NC(=O)CO5)nc4cn[nH]c34)ccc2[nH]1 [Example #289, 6-(7-((2-methyl-1H-benzo[d]imidazol-5-yl)amino)-1H-pyrazolo[4,3-d]pyrimidin-5-yl)-2H-benzo[b][1,4]oxazin-3(4H)-one]
